Experimental findings from patent US6046218A, “Pyridine derivative and medicament containing the same as an effective ingredient” (SS Pharmaceutical Co., Ltd., priority 1996, dated 2000) are described below.

Test [1] deals with IgE production. The test is described as follows: Test 4: inhibition of IgE production by spleen cells of orally treated sensitized mice. Type of test: in vivo, Balb/c mouse. The note with it: Mus musculus, po, 100 mg/kg orally once a day, Day 1 to Day 10, DNP-BSA 5 μg/ml, 24 hours, read-out: Inhibition rate of IgE production.
Test [2] deals with IgM production. The test is described as follows: Test 4 (comparison): inhibition of IgM production. Type of test: in vivo, Balb/c mouse. The note with it: 100 mg/kg orally once a day.
Test [3] concerns IL-4 production. The test is described as follows: Test 2: inhibition of IL-4 production in human T-cell strain ATL-16T(-) stimulated with PMA (Bio Source EIA). Type of test: cell-based. The note with it: ATL-16T(-) 5×10^5 cells/0.5 ml/well, 20 nM PMA, 48 hours, read-out: Inhibition rate of IL-4 production. As to the method:
Test 2: Test on the inhibition of IL-4 production
Into individual wells of a 48-well microplate, the human T-cell strain ATL-16T(-) was poured at a concentration of 5×10^5 cells/0.5 ml/well (n=3), followed by the addition of a stimulator (20 nM of PMA) and a medicament at the same time. The resulting mixture was incubated in 5% CO2 at 37° C. for 48 hours. After incubation, 50 μl of the supernatant were collected and subjected to measurement by a human IL-4 EIA kit (BIO SOURCE, INC.). The inhibition rate was calculated according to the following formula. [formula]

Test [4] concerns IL-5 production. The test is described as follows: Test 3: inhibition of IL-5 production in human PBMC stimulated with ConA. In kind it is cell-based. The settings on record: 10^-6 M, 10 μg/ml ConA, 48 hours, read-out: Inhibition rate of IL-5 production. The method, boiled down:
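Human PBMC from a normal volunteer, 1×10^6 cells/ml in AIM-V, stimulated with 10 μg/ml ConA alongside compound and incubated 48 h at 37 °C, 5% CO2. Supernatant IL-5 quantified by EIA; inhibition rate calculated from a formula.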

Test [5] concerns IgG2a production. Put plainly: Test 4 (comparison): inhibition of IgG2a production. The note with it: 100 mg/kg orally once a day. Type of test: in vivo, Balb/c mouse.
The subject of test [6] is IgG1 production. The test is described as follows: Test 4 (comparison): inhibition of IgG1 production. Type of test: in vivo, Balb/c mouse. The settings on record: 100 mg/kg orally once a day.

Regarding `COc1cnc(/C=C/C(=O)c2ccccc2OC)cc1OCCCCCC(=O)O` [Ex. 105, 6-[5-Methoxy-2-(3-(2-methoxyphenyl)-3-oxo-1-propenyl)-4-pyridyloxy]hexanoicacid], the inhibition – broadly, the drop in the measured response relative to a control, in per cent – at 100 mg/kg in test [1] was 47.7%; in test [2] (Mus musculus, po, Day 1 to Day 10, spleen cells, DNP-BSA 5 μg/ml, 24 hours, read-out: Inhibition rate of IgM production) it was 0.5%; in test [5] (Mus musculus, po, Day 1 to Day 10, spleen cells, DNP-BSA 5 μg/ml, 24 hours, read-out: Inhibition rate of IgG2a production) it was -1.8%; in test [6] (Mus musculus, po, Day 1 to Day 10, spleen cells, DNP-BSA 5 μg/ml, 24 hours, read-out: Inhibition rate of IgG1 production), -4.2%. In test [2] (in words), the “effects on the production of IgM” value was “No effects were observed”. Moreover, in test [3] (10^-5 M), the inhibition at 10 µM worked out at 101%. Besides, the inhibition at 1 µM turned out to be 70.9% in test [3] (10^-6 M) and 71% in test [4]. For the same molecule, the inhibition at 0.1 µM in test [3] (10^-7 M) amounted to 69.6%. In addition, in test [3] (10^-8 M), the inhibition at 0.01 µM is 68.7%. Besides, in test [5] (in words), the “effects on the production of IgG2a” value is “No effects were observed”. Moreover, the “effects on the production of IgG1” value in test [6] (in words) is “No effects were observed”.
